# Reference: PubChem BioAssay AID256 (DTP/NCI, 2004)
# Inconclusive results and toxic doses are left out.
# Test system: CD2F1 mice, L1210 leukemia ip, survival T/C
# Test: NCI In Vivo Anticancer Drug Screen. Data for tumor model L1210 Leukemia (intraperitoneal) in CD2F1 (CDF1) mice
# Conditions: higher = longer survival
# Protocol: The antitumor activity of compounds was measured in mice bearing transplantable tumors. Survival or tumor size were measured and the results are expressed as the measurement made in the treated group (T) divided by the measurement made in the vehicle treated control group (C). The tumor model used in this assay is L1210 Leukemia (intraperitoneal) in CD2F1 (CDF1) mice
smiles,measurement,setting,value
O=c1[nH]c(=O)n(C2CC(O)C(CO)O2)cc1F (configuration not stated),T/C,"endpoint: mean survival time, dose: 5.0 mg/kg/injection, schedule: Q#A X018 (ip), vehicle: saline",115 % of control
same,T/C,"endpoint: mean survival time, dose: 9.0 mg/kg/injection, schedule: Q#A X018 (ip), vehicle: saline",121 % of control
same,T/C,"endpoint: mean survival time, dose: 12.5 mg/kg/injection, schedule: Q03HX024 (oral), vehicle: saline",101 % of control
same,T/C,"endpoint: mean survival time, dose: 16.0 mg/kg/injection, schedule: Q#A X018 (ip), vehicle: saline",121 % of control
same,T/C,"endpoint: mean survival time, dose: 25.0 mg/kg/injection, schedule: Q01DX005 (ip), vehicle: water",108 % of control
same,T/C,"endpoint: mean survival time, dose: 25.0 mg/kg/injection, schedule: Q03HX008 (oral), vehicle: saline",107 % of control
same,T/C,"endpoint: mean survival time, dose: 25.0 mg/kg/injection, schedule: Q03HX016 (ip), vehicle: saline",96 % of control
same,T/C,"endpoint: mean survival time, dose: 26.0 mg/kg/injection, schedule: Q#A X018 (ip), vehicle: saline",123 % of control
same,T/C,"endpoint: mean survival time, dose: 31.3 mg/kg/injection, schedule: Q01DX005 (ip), vehicle: saline",121 % of control
same,T/C,"endpoint: mean survival time, dose: 37.5 mg/kg/injection, schedule: Q03DX003 (ip), vehicle: water",121 % of control
same,T/C,"endpoint: mean survival time, dose: 37.5 mg/kg/injection, schedule: Q04DX003 (ip), vehicle: water",100 % of control
same,T/C,"endpoint: mean survival time, dose: 43.0 mg/kg/injection, schedule: Q#A X018 (ip), vehicle: saline",108 % of control
same,T/C,"endpoint: mean survival time, dose: 50.0 mg/kg/injection, schedule: Q01DX005 (ip), vehicle: water",110 % of control
same,T/C,"endpoint: mean survival time, dose: 50.0 mg/kg/injection, schedule: Q01DX009 (oral), vehicle: saline",119 % of control
same,T/C,"endpoint: mean survival time, dose: 50.0 mg/kg/injection, schedule: Q03HX008 (oral), vehicle: saline",111 % of control
same,T/C,"endpoint: mean survival time, dose: 50.0 mg/kg/injection, schedule: Q03HX016 (ip), vehicle: saline",111 % of control
same,T/C,"endpoint: mean survival time, dose: 50.0 mg/kg/injection, schedule: Q03HX024 (oral), vehicle: saline",107 % of control
same,T/C,"endpoint: mean survival time, dose: 72.0 mg/kg/injection, schedule: Q#A X018 (ip), vehicle: saline",106 % of control
same,T/C,"endpoint: mean survival time, dose: 75.0 mg/kg/injection, schedule: Q01DX007 (ip), vehicle: water",100 % of control
same,T/C,"endpoint: mean survival time, dose: 75.0 mg/kg/injection, schedule: Q01DX009 (ip), vehicle: water",110 % of control
same,T/C,"endpoint: mean survival time, dose: 75.0 mg/kg/injection, schedule: Q03DX003 (ip), vehicle: water",122 % of control
same,T/C,"endpoint: mean survival time, dose: 75.0 mg/kg/injection, schedule: Q04DX003 (ip), vehicle: water",111 % of control
same,T/C,"endpoint: mean survival time, dose: 80.0 mg/kg/injection, schedule: Q01DX009 (ip), vehicle: saline",167 % of control
same,T/C,"endpoint: mean survival time, dose: 100.0 mg/kg/injection, schedule: Q01DX005 (ip), vehicle: water",110 % of control
same,T/C,"endpoint: mean survival time, dose: 100.0 mg/kg/injection, schedule: Q03HX024 (oral), vehicle: saline",92 % of control
same,T/C,"endpoint: mean survival time, dose: 100.0 mg/kg/injection, schedule: Q04DX003 (oral), vehicle: saline",114 % of control
same,T/C,"endpoint: mean survival time, dose: 120.0 mg/kg/injection, schedule: Q#A X018 (ip), vehicle: saline",94 % of control
same,T/C,"endpoint: mean survival time, dose: 125.0 mg/kg/injection, schedule: Q01DX001 (ip), vehicle: saline",101 % of control
same,T/C,"endpoint: mean survival time, dose: 125.0 mg/kg/injection, schedule: Q01DX001 (oral), vehicle: saline",101 % of control
same,T/C,"endpoint: mean survival time, dose: 125.0 mg/kg/injection, schedule: Q01DX001 (sc), vehicle: saline",109 % of control
same,T/C,"endpoint: mean survival time, dose: 125.0 mg/kg/injection, schedule: Q01DX009 (oral), vehicle: saline",121 % of control
same,T/C,"endpoint: mean survival time, dose: 125.0 mg/kg/injection, schedule: Q03HX008 (ip), vehicle: saline",120 % of control
same,T/C,"endpoint: mean survival time, dose: 125.0 mg/kg/injection, schedule: Q03HX016 (ip), vehicle: saline",110 % of control
same,T/C,"endpoint: mean survival time, dose: 125.0 mg/kg/injection, schedule: Q03HX024 (ip), vehicle: saline",163 % of control
same,T/C,"endpoint: mean survival time, dose: 125.0 mg/kg/injection, schedule: Q04DX003 (ip), vehicle: saline",119 % of control
same,T/C,"endpoint: mean survival time, dose: 125.0 mg/kg/injection, schedule: Q08DX002 (ip), vehicle: saline",100 % of control
same,T/C,"endpoint: mean survival time, dose: 150.0 mg/kg/injection, schedule: Q01DX007 (ip), vehicle: water",100 % of control
same,T/C,"endpoint: mean survival time, dose: 150.0 mg/kg/injection, schedule: Q01DX009 (ip), vehicle: water",100 % of control
same,T/C,"endpoint: mean survival time, dose: 160.0 mg/kg/injection, schedule: Q01DX009 (ip), vehicle: saline",151 % of control
same,T/C,"endpoint: mean survival time, dose: 200.0 mg/kg/injection, schedule: Q01DX001 (oral), vehicle: saline",113 % of control
same,T/C,"endpoint: mean survival time, dose: 200.0 mg/kg/injection, schedule: Q01DX005 (ip), vehicle: water",87 % of control
same,T/C,"endpoint: mean survival time, dose: 200.0 mg/kg/injection, schedule: Q01DX009 (oral), vehicle: saline",114 % of control
same,T/C,"endpoint: mean survival time, dose: 200.0 mg/kg/injection, schedule: Q03HX008 (oral), vehicle: saline",94 % of control
same,T/C,"endpoint: mean survival time, dose: 200.0 mg/kg/injection, schedule: Q03HX016 (ip), vehicle: saline",118 % of control
same,T/C,"endpoint: mean survival time, dose: 200.0 mg/kg/injection, schedule: Q08DX002 (oral), vehicle: saline",103 % of control
same,T/C,"endpoint: mean survival time, dose: 200.0 mg/kg/injection, schedule: Q#A X018 (ip), vehicle: saline",88 % of control
same,T/C,"endpoint: mean survival time, dose: 250.0 mg/kg/injection, schedule: Q01DX001 (ip), vehicle: saline",111 % of control
same,T/C,"endpoint: mean survival time, dose: 250.0 mg/kg/injection, schedule: Q01DX001 (oral), vehicle: saline",108 % of control
same,T/C,"endpoint: mean survival time, dose: 250.0 mg/kg/injection, schedule: Q01DX001 (sc), vehicle: saline",123 % of control
same,T/C,"endpoint: mean survival time, dose: 250.0 mg/kg/injection, schedule: Q01DX009 (ip), vehicle: saline",108 % of control
same,T/C,"endpoint: mean survival time, dose: 250.0 mg/kg/injection, schedule: Q01DX009 (oral), vehicle: saline",121 % of control
same,T/C,"endpoint: mean survival time, dose: 250.0 mg/kg/injection, schedule: Q01DX009 (sc), vehicle: saline",122 % of control
same,T/C,"endpoint: mean survival time, dose: 250.0 mg/kg/injection, schedule: Q03HX024 (ip), vehicle: saline",155 % of control
same,T/C,"endpoint: mean survival time, dose: 250.0 mg/kg/injection, schedule: Q04DX003 (ip), vehicle: saline",162 % of control
same,T/C,"endpoint: mean survival time, dose: 250.0 mg/kg/injection, schedule: Q08DX002 (ip), vehicle: saline",115 % of control
same,T/C,"endpoint: mean survival time, dose: 320.0 mg/kg/injection, schedule: Q01DX009 (ip), vehicle: saline",102 % of control
same,T/C,"endpoint: mean survival time, dose: 400.0 mg/kg/injection, schedule: Q01DX001 (oral), vehicle: saline",117 % of control
same,T/C,"endpoint: mean survival time, dose: 400.0 mg/kg/injection, schedule: Q01DX009 (oral), vehicle: saline",109 % of control
same,T/C,"endpoint: mean survival time, dose: 400.0 mg/kg/injection, schedule: Q04DX003 (oral), vehicle: saline",119 % of control
same,T/C,"endpoint: mean survival time, dose: 400.0 mg/kg/injection, schedule: Q08DX002 (oral), vehicle: saline",107 % of control
same,T/C,"endpoint: mean survival time, dose: 500.0 mg/kg/injection, schedule: Q01DX001 (oral), vehicle: saline",121 % of control
same,T/C,"endpoint: mean survival time, dose: 500.0 mg/kg/injection, schedule: Q03HX016 (ip), vehicle: saline",154 % of control
same,T/C,"endpoint: mean survival time, dose: 500.0 mg/kg/injection, schedule: Q03HX024 (ip), vehicle: saline",121 % of control
same,T/C,"endpoint: mean survival time, dose: 500.0 mg/kg/injection, schedule: Q08DX002 (ip), vehicle: saline",164 % of control
same,T/C,"endpoint: mean survival time, dose: 800.0 mg/kg/injection, schedule: Q04DX003 (oral), vehicle: saline",110 % of control
same,T/C,"endpoint: mean survival time, dose: 800.0 mg/kg/injection, schedule: Q08DX002 (oral), vehicle: saline",156 % of control
same,T/C,"endpoint: mean survival time, dose: 1000.0 mg/kg/injection, schedule: Q01DX001 (oral), vehicle: saline",151 % of control
same,T/C,"endpoint: mean survival time, dose: 1000.0 mg/kg/injection, schedule: Q01DX001 (sc), vehicle: saline",159 % of control
same,T/C,"endpoint: mean survival time, dose: 1000.0 mg/kg/injection, schedule: Q03HX008 (ip), vehicle: saline",157 % of control
same,T/C,"endpoint: mean survival time, dose: 1000.0 mg/kg/injection, schedule: Q03HX024 (ip), vehicle: saline",92 % of control
same,T/C,"endpoint: mean survival time, dose: 1000.0 mg/kg/injection, schedule: Q04DX003 (ip), vehicle: saline",98 % of control
same,T/C,"endpoint: mean survival time, dose: 1600.0 mg/kg/injection, schedule: Q01DX001 (oral), vehicle: saline",103 % of control
same,T/C,"endpoint: mean survival time, dose: 1600.0 mg/kg/injection, schedule: Q08DX002 (oral), vehicle: saline",97 % of control
same,T/C,"endpoint: median survival time, dose: 51.8 mg/kg/injection, schedule: Q04DX002 (ip), vehicle: saline",107 % of control
same,T/C,"endpoint: median survival time, dose: 86.4 mg/kg/injection, schedule: Q04DX002 (ip), vehicle: saline",114 % of control
same,T/C,"endpoint: median survival time, dose: 144.0 mg/kg/injection, schedule: Q04DX002 (ip), vehicle: saline",121 % of control
same,T/C,"endpoint: median survival time, dose: 400.0 mg/kg/injection, schedule: Q04DX002 (ip), vehicle: saline",105 % of control
CN(C)N=C1CCCCC1,T/C,"endpoint: mean survival time, dose: 75.0 mg/kg/injection, schedule: Q01DX001 (ip), vehicle: saline",96 % of control
same,T/C,"endpoint: mean survival time, dose: 150.0 mg/kg/injection, schedule: Q01DX001 (ip), vehicle: saline",98 % of control
O=C(C1=CN(CCCO)CCC1)c1cc2ccccc2n1S(=O)(=O)c1ccccc1,T/C,"endpoint: mean survival time, dose: 100.0 mg/kg/injection, schedule: Q04DX003 (ip), vehicle: saline with Tween-80",104 % of control
same,T/C,"endpoint: mean survival time, dose: 200.0 mg/kg/injection, schedule: Q04DX003 (ip), vehicle: saline with Tween-80",90 % of control
same,T/C,"endpoint: mean survival time, dose: 400.0 mg/kg/injection, schedule: Q04DX003 (ip), vehicle: saline with Tween-80",97 % of control
